Laboratory results taken from patent publication US5324747A, “N-substituted anilines, inhibitors of phospholipases A2” (Hoffmann-La Roche Inc., priority 1992, dated 1994).

How the values were obtained:
[1] = tested on: Acetic Acid-Induced Colitis in Rats; assay: Acetic Acid-Induced Colitis in Rats; format: in vivo, rats (Sprague-Dawley)
From the text: Acetic Acid-Induced Colitis in Rats The rat acetic acid-induced colitis bioassay has been described by J. E. Krawisz, et al. in Amer. J. Proc. Gastro. Col. Rec. Surg. 31: 11-18 (1980), and by P. Sharon and W. F. Stenson in Gastroenterology 88: 55-63 (1985) and 86:453-460 (1984). Acetic acid-induced colitis is characterized by the movement of inflammatory cells into the colon, with the number of such cells in the mucosa being measured by the activity of myeloperoxidase, a marker enzyme for these cells. Positive desirable activity is indicated by a reduction in the high levels of myeloperoxidase caused by acetic acid. […] The animals were administered a second dose of the test compound in the same amount about 16 hours later. Then 24 hours after the acetic acid treatment, the animals were sacrificed. The colonic mucosa was surgically removed and homogenized in an aqueous buffer at pH 6 with a Tissumizer or similar device and myeloperoxidase was measured in the homogenate using o-phenylenediamine as a cromagen, as described by […] and A. Bartlett in "The Enzyme Linked Immunosorbent Assay (ELISA)", Zoological Soc., London, 1979, pages 29-30. Control animals were pretreated with the vehicle and saline in place of acetic acid.

PLA2 Rat Paw Edema = assay: Phospholipase A2 Rat Paw Edema; format: in vivo, Lewis rats
Summary of the method: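 Lewis rats (~200 g, n=7) dosed i.p. (in DMSO) or orally (in Labrafil M-1944CS) 1 h before subplantar injection of 5 ug Naja naja PLA2 into right hind paw. Paw volume by plethysmometry at 0.5, 2 and 4 hr minus baseline; % change versus vehicle, Student's t-test.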

HSF-PLA2 = biological target: T1, HSF-PLA2 (Homo sapiens, UniProt P14555); assay: Assay for Inhibition of HSF-PLA2 In Vitro; format: biochemical; conditions: read-out: Inhib of HSF-PLA2 IC50
T1 construct: extracellular enzyme obtained from human synovial fluid (HSF-PLA2); from tissue; host or cells: pooled human synovial fluid, added at 0.1% (v/v)
T1 sequence (P14555 21-144): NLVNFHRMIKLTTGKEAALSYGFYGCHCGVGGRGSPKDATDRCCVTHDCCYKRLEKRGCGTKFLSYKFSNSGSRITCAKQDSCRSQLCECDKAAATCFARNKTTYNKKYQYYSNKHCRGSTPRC
Summary of the method: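 Extracellular PLA2 isolated from human synovial fluid, incubated 30 min at 37 °C with 14C-labelled phospholipid substrate in duplicate. Lipids were chloroform-extracted, and released 14C-oleic acid was separated from substrate by silica TLC; a no-enzyme control was run in each experiment.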

[2] = tested on: Naja naja snake venom PLA2 (SV-PLA2); assay: Assay for inhibition of snake venom PLA2 (SV-PLA2) in vitro; format: biochemical; conditions: read-out: Inhib of SV-PLA2 IC50
Description: ASSAY FOR INHIBITION OF SNAKE VENOM PLA2 (SV-PLA2) IN VITRO
Several representative compounds of the invention were also tested as inhibitors of Naja naja snake venom PLA2 (SV-PLA2). The assay employed in this study was the spectrophotometric method described by: C. Vigo, G. P. Lewis and P. J. Piper in Biochemical Pharmacology, 29:623-627 (1983), which was modified as described by: A. F. Welton, L. D. Tobias, C. Fiedler-Nagy, W. Anderson, W. Hope, K. Meyers and J. W. Coffey in "Plant Flavonoids in Biology and Medicine: Biochemical, Pharmacological and Structure-Activity Relationships", p 231-242, (1986) Alan R. Liss, Inc. The PLA2 paw edema model, (data in Table I) is initiated by injection of SV-PLA2.

[3] = tested on: Croton Oil Mouse Ear Edema; assay: Croton Oil Mouse Ear Edema Test; format: in vivo, CD-1 mice; conditions: topical, coapplied, 6 hours
Description: Twenty five μl of a 1% croton oil solution [dissolved in a mixture of pyridine/water/diethyl ether at a ratio of 5/20/75 (croton oil vehicle)] are applied to the outer side of the right ear of 3-4 week old made CD-1 mice (8 animals per group). The test compounds are dissolved directly in the 1% croton oil solution at various concentrations and coapplied. Control animals receive 25 μl of croton oil vehicle on the right ear. Biopsy punches are removed at 6 hours from the right ear of the animals using a 6 mm skin trephine (Roboz, Washington, D.C.) and the wet weight of the ear punches is determined. The weight of the biopsy punches is a measure of ear inflammation, primarily edema. The data are expressed as percent inhibition relative to control groups.

mouse skin = conditions: cited from earlier work

Row | Compound | % Inhibition of Myeloperoxidase Accumulation at 10 mg/kg po [1] | % Inhib of PLA2 Rat Paw Edema 2 hr (PLA2 Rat Paw Edema; (50 mg/kg)) | IC50 (HSF-PLA2) | IC50 [2] | % Inhib of Croton Oil Mouse Ear Edema (1 mg) [3] | inhibition in vivo at 30 mg/kg (PLA2 Rat Paw Edema; Rattus norvegicus, 2 hr, 30 mg/kg, read-out: % Inhib of PLA2 Rat Paw Edema 2 hr (30 mg/kg)) | TPA-mediated increase in epidermal PGE2 levels (mouse skin) | TPA-mediated induction of epidermal cell ornithine decarboxylase (mouse skin)
1 | CCCCCCCCCCCCCCOc1cc(OCCCCCCCCCCCCCC)cc(N(CC(=O)O)CC(=O)O)c1 [Example 6e, N-(carboxymethyl)-N-[3,5-bis(tetradecyloxy)phenyl]glycine] | 145 ± 72% | 44% | 130 nM |  |  |  |  | 
2 | CCCCCCCCCCNC(=O)c1cc(C(=O)NCCCCCCCCCC)cc(N(CC(=O)O)CC(=O)O)c1 [Example 16, N-(Carboxymethyl)-N-[3,5-bis[(decylamino)carbonyl]phenyl]glycine] | 212 ± 124% |  | 300 nM | 50 nM | 10% | 0% |  | 
3 | COc1ccc2c(c1)c(CC(=O)O)c(C)n2C(=O)c1ccc(Cl)cc1 [Indomethacin] |  |  |  |  |  |  | prevented | prevented
4 | CCCCCCCCCCCCCCCCCCOc1cccc(N(CC(=O)O)CC(=O)O)c1 [Example 36, N -(Carboxymethyl)-N-[3-(octadecyloxy)phenyl]glycine] | 190 ± 76% |  | 170 nM |  | 21% |  |  | 
